Laboratory results taken from ChEMBL document CHEMBL1201862, “PubChem BioAssay data set” (2004).
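Growth conditions: 96-well plates. Treatment: test compound, 48 hours, 5 concentrations. Analysis: linear interpolation between bracketing concentrations; unreached endpoints set to highest concentration. GI50 = concentration required for 50% inhibition of growth.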 Activity calls are given as the source filed them. No stated cut-off is given here; in the data, active = GI50 up to about 1.1 µM and inactive = higher.

Legend:
Experiment in all cases: growth of human tumour cells (NCI), 48 h
786-0 = tested on: 786-0
A498 = tested on: A498
A549 = tested on: A549
ACHN = tested on: ACHN
BT-549 = tested on: BT-549
CAKI-1 = tested on: CAKI-1
CCRF-CEM = tested on: CCRF-CEM
COLO 205 = tested on: COLO 205
DU-145 = tested on: DU-145
EKVX = tested on: EKVX
HCC 2998 = tested on: HCC 2998
HCT-116 = tested on: HCT-116
HCT-15 = tested on: HCT-15
HL-60 = tested on: HL-60
HOP-62 = tested on: HOP-62
HT-29 = tested on: HT-29
Hs-578T = tested on: Hs-578T
IGROV-1 = tested on: IGROV-1
K562 = tested on: K562
KM12 = tested on: KM12
LOX IMVI = tested on: LOX IMVI
M14 = tested on: M14
MCF7 = tested on: MCF7
MDA-MB-231 = tested on: MDA-MB-231
MDA-MB-435 = tested on: MDA-MB-435
MDA-N = tested on: MDA-N
MOLT-4 = tested on: MOLT-4
Malme-3M = tested on: Malme-3M
NCI-H226 = tested on: NCI-H226
NCI-H23 = tested on: NCI-H23
NCI-H460 = tested on: NCI-H460
NCI-H522 = tested on: NCI-H522
NCI/ADR-RES = tested on: NCI/ADR-RES
OVCAR-3 = tested on: OVCAR-3
OVCAR-4 = tested on: OVCAR-4
OVCAR-5 = tested on: OVCAR-5
OVCAR-8 = tested on: OVCAR-8
PC-3 = tested on: PC-3
RPMI-8226 = tested on: RPMI-8226
RXF 393 = tested on: RXF 393
SF-268 = tested on: SF-268
SF-295 = tested on: SF-295
SF-539 = tested on: SF-539
SK-MEL-28 = tested on: SK-MEL-28
SK-MEL-2 = tested on: SK-MEL-2
SK-OV-3 = tested on: SK-OV-3
SN12C = tested on: SN12C
SNB-19 = tested on: SNB-19
SNB-75 = tested on: SNB-75
SW-620 = tested on: SW-620
T47D = tested on: T47D
TK-10 = tested on: TK-10
U-251 = tested on: U-251
UACC-257 = tested on: UACC-257
UACC-62 = tested on: UACC-62
SK-MEL-5 = tested on: SK-MEL-5
UO-31 = tested on: UO-31

For CCOC(=O)/C(C(=O)Nc1ccc(Cl)cc1)=C(/N)N1CCCC1, the GI50 (786-0) was > 100 µM (inactive), the GI50 (A498) was 64.4 µM (inactive) and the GI50 (A549) was > 100 µM (inactive). For the same compound, the GI50 (ACHN) was 45.6 µM (inactive), the GI50 (BT-549) was > 100 µM (inactive) and the GI50 (CAKI-1) was > 100 µM (inactive). For the same compound, the GI50 (CCRF-CEM) was > 100 µM (inactive), the GI50 (COLO 205) was > 100 µM (inactive) and the GI50 (DU-145) was > 100 µM (inactive). For the same compound, the GI50 (EKVX) was > 100 µM (inactive), the GI50 (HCC 2998) was > 100 µM (inactive) and the GI50 (HCT-116) was 94 µM (inactive). For the same compound, the GI50 (HCT-15) was greater than 100 µM, the GI50 (HL-60) was > 100 µM (inactive) and the GI50 (HOP-62) was > 100 µM (inactive). For the same compound, the GI50 (HT-29) was > 100 µM (inactive), the GI50 (Hs-578T) was > 100 µM (inactive) and the GI50 (IGROV-1) was 54.2 µM (inactive). The GI50 (K562) was 66.7 µM (inactive), the GI50 (KM12) was > 100 µM (inactive) and the GI50 (LOX IMVI) was > 100 µM (inactive). The GI50 (M14) was > 100 µM (inactive), the GI50 (MCF7) was > 100 µM (inactive) and the GI50 (MDA-MB-231) was > 100 µM (inactive). For the same compound, the GI50 (MDA-MB-435) was > 100 µM (inactive), the GI50 (MDA-N) was > 100 µM (inactive) and the GI50 (MOLT-4) was 71.6 µM (inactive). The GI50 (Malme-3M) was > 100 µM (inactive), the GI50 (NCI-H226) was > 100 µM (inactive) and the GI50 (NCI-H23) was > 100 µM (inactive). The GI50 (NCI-H460) was > 100 µM (inactive), the GI50 (NCI-H522) was > 100 µM (inactive) and the GI50 (NCI/ADR-RES) was > 100 µM (inactive). The GI50 (OVCAR-3) was > 100 µM (inactive), the GI50 (OVCAR-4) was 69.3 µM (inactive) and the GI50 (OVCAR-5) was > 100 µM (inactive). For the same compound, the GI50 (OVCAR-8) was > 100 µM (inactive), the GI50 (PC-3) was > 100 µM (inactive) and the GI50 (RPMI-8226) was 97.9 µM (inactive). The GI50 (RXF 393) was > 100 µM (inactive), the GI50 (SF-268) was > 100 µM (inactive) and the GI50 (SF-295) was > 100 µM (inactive). For the same compound, the GI50 (SF-539) was > 100 µM (inactive), the GI50 (SK-MEL-28) was > 100 µM (inactive) and the GI50 (SK-MEL-2) was 49.3 µM (inactive). For the same compound, the GI50 (SK-OV-3) was > 100 µM (inactive), the GI50 (SN12C) was > 100 µM (inactive) and the GI50 (SNB-19) was > 100 µM (inactive). The GI50 (SNB-75) was > 100 µM (inactive), the GI50 (SW-620) was > 100 µM (inactive) and the GI50 (T47D) was > 100 µM (inactive). The GI50 (TK-10) was > 100 µM (inactive), the GI50 (U-251) was > 100 µM (inactive) and the GI50 (UACC-257) was > 100 µM (inactive). For the same compound, the GI50 (UACC-62) was 42 µM (inactive).
With NCCNC(=S)S the GI50 (786-0) was 33.8 µM (inactive), the GI50 (A498) was > 100 µM (inactive) and the GI50 (A549) was > 100 µM (inactive). For the same compound, the GI50 (ACHN) was > 100 µM (inactive), the GI50 (BT-549) was > 100 µM (inactive) and the GI50 (CAKI-1) was > 100 µM (inactive). For the same compound, the GI50 (CCRF-CEM) was 22.4 µM (inactive), the GI50 (COLO 205) was > 100 µM (inactive) and the GI50 (DU-145) was > 100 µM (inactive). For the same compound, the GI50 (EKVX) was > 100 µM (inactive), the GI50 (HCC 2998) was > 100 µM (inactive) and the GI50 (HCT-116) was > 100 µM (inactive). The GI50 (HCT-15) was 58.2 µM, the GI50 (HL-60) was 44.7 µM (inactive) and the GI50 (HOP-62) was > 100 µM (inactive). The GI50 (HT-29) was 85.9 µM (inactive), the GI50 (Hs-578T) was 7.31 µM (inactive) and the GI50 (IGROV-1) was > 100 µM (inactive). The GI50 (K562) was 36.6 µM (inactive), the GI50 (KM12) was > 100 µM (inactive) and the GI50 (LOX IMVI) was 51.8 µM (inactive). The GI50 (M14) was > 100 µM (inactive), the GI50 (MCF7) was > 100 µM (inactive) and the GI50 (MDA-MB-231) was > 100 µM (inactive). The GI50 (MDA-MB-435) was > 100 µM (inactive), the GI50 (MDA-N) was > 100 µM (inactive) and the GI50 (MOLT-4) was 34.9 µM (inactive). The GI50 (Malme-3M) was 11.9 µM (inactive), the GI50 (NCI-H226) was > 100 µM (inactive) and the GI50 (NCI-H23) was > 100 µM (inactive). The GI50 (NCI-H522) was 3.48 µM (inactive), the GI50 (NCI/ADR-RES) was > 100 µM (inactive) and the GI50 (OVCAR-3) was 52.7 µM (inactive). For the same compound, the GI50 (OVCAR-4) was > 100 µM (inactive), the GI50 (OVCAR-5) was > 100 µM (inactive) and the GI50 (OVCAR-8) was 57.5 µM (inactive). The GI50 (PC-3) was > 100 µM (inactive), the GI50 (RPMI-8226) was 24.9 µM (inactive) and the GI50 (RXF 393) was > 100 µM (inactive). The GI50 (SF-268) was 4.9 µM (inactive), the GI50 (SF-295) was > 100 µM (inactive) and the GI50 (SK-MEL-28) was > 100 µM (inactive). For the same compound, the GI50 (SK-MEL-2) was > 100 µM (inactive), the GI50 (SK-MEL-5) was > 100 µM (inactive) and the GI50 (SK-OV-3) was > 100 µM (inactive). For the same compound, the GI50 (SN12C) was 68.9 µM (inactive), the GI50 (SNB-19) was > 100 µM (inactive) and the GI50 (SNB-75) was > 100 µM (inactive). The GI50 (SW-620) was 59.2 µM (inactive), the GI50 (T47D) was > 100 µM (inactive) and the GI50 (TK-10) was > 100 µM (inactive). The GI50 (U-251) was > 100 µM (inactive), the GI50 (UACC-257) was > 100 µM (inactive) and the GI50 (UACC-62) was > 100 µM (inactive). The GI50 (UO-31) was > 100 µM (inactive).
